Legend:
A2780/CP70 cells = assay: Annexin V apoptosis assay, A2780/CP70; assay type: cell-based, human; conditions: 24 h
Experimental: (§1) FIG. 1. […] (A) A2780/CP70 cells and human fibroblast GM847 cells were seeded in 96-well plate at 4×10^3 cells per well and incubated overnight. […] The cells were incubated for 24 h. Cell proliferation was determined by MTT reduction. […] Cells were trypsinized, harvested, washed once with PBS buffer, and stained using the Annexin-V-Folus Kit as per the manufacture's instructions. […] After incubation, all cells were collected and total DNA was isolated. Eight (8) μg of DNA was resolved on 1.8% agarose gel. […] (D) Treatment of GM847 cells was the same as that of 5D. […] Cleavage of caspase-3 and PARP was detected by western-blot.
FIG. 10. […] The cisplatin-resistant ovarian cancer A2780/CP70 cells were seeded in a petri dish. […] After treatment, the cells were collected and the relative cellular apoptosis was analyzed by Annexin V Kit (Roche), and compared to the control.

A549 tumors = assay: A549 tumor growth in nude mice; assay type: in vivo; conditions: 3 mg/kg intraperitoneal three times a week, day 40
Experimental: FIG. 15. […] Each treatment group contained 10 mice. […] The mice were euthanized on day 40. A, representative tumors from the control and apigenin-treated groups. Scale bar, 1 cm. B, tumor volumes were measured by the width and length of tumors from 10 mice in each treatment when tumors were visible. The mean±S.D. were obtained from 10 mice. C, the tumors were removed from mice, measured by the width and length, and analyzed as above. D, the mean±S.D. of the tumor weight. *, significant difference when compared with the solvent control (p<0.05).

[1] = system: tumors induced by A2780/CP70 cells; assay: Blood vessel numbers of A2780/CP70 tumors on CAM; assay type: in vivo, chicken embryo; conditions: 10 μM apigenin or 2.5 μM CDDP+10 μM apigenin, 10 days
Experimental: FIG. 4. […] The A2780/CP70 cells were seeded into 100 mm dish and grown to 90-100% confluence. […] In 10 days, the tumors were harvested and weighed. The blood vessel numbers of the tumor were counted under×100. At least five areas were determined. The data are mean±SD from two experiments (n=8). A, representative tumor morphology; B, tumor weight; C, relative numbers of blood vessels.

[2] = system: human fibroblast GM847 cells; assay: MTT proliferation, human fibroblast GM847 cells; assay type: cell-based; conditions: same experimental conditions as cancer cells, 24 h
Experimental: as §1

Q: How did the cells undergoing apoptosis (A2780/CP70 cells; A2780/CP70, 10 μM apigenin or 10 μM apigenin plus 10 μM cisplatin) turn out when `O=c1cc(-c2ccc(O)cc2)oc2cc(O)cc(O)c12` [apigenin, 4′,5,7,-trihydroxyflavone] was run?
A: 12%

Q: And the induction of apoptosis (A2780/CP70 cells; A2780/CP70, apigenin alone)?
A: specifically induced apoptosis

Q: What about the “effect on tumor growth in vivo” value (A549 tumors) of the same compound?
A: inhibited tumor growth in vivo

Q: What about the “inhibition of blood vessel formation (angiogenesis)” value [1] of the same compound?
A: 35%

Q: And the “effect on human normal fibroblast cells” value [2]?
A: little effects

— patent US8377918B2 (ACC Therapeutics Inc, priority 2005, dated 2013)
